Test results published in publication PMC10384010, “Chromatographic Data in Statistical Analysis of BBB Permeability Indices” (Membranes, 2023).

Legend:
[1] = Normal-phase TLC on silica gel 60 F254 (Rf); assay type: physicochemical; conditions: water:methanol:acetonitrile 60:20:20, ammonium acetate pH 7.4
Description: (§1) The purity of the isolated substances was checked by TLC chromatography and densitometric scanning.
(§2) APIs were subjected to chromatographic in column (HPLC) and thin layer (TLC) formats. TLC chromatography was carried out on 20 cm × 20 cm glass plates by Merck, covered with silica gel and the addition of a fluorescent indicator. Merck TLC silica gel 60 F254 was used for the normal phase (NP). In the reverse phase (RP), RP-2 silanized plates were used (Merck TLC Silica gel 60 RP-2 F254, silanized). The mobile phase was buffered with ammonium acetate to pH 7.4 (LACH-NER, ammonium acetate).
(§3) Plates, after developing the chromatograms, were scanned using a densitometer (Desaga CD 60) with an analytical wavelength selected individually for drugs. The values of Rf (molecular descriptors: NP, RP) were determined.

[2] = Reversed-phase TLC on RP-2 silanized plates (Rf); assay type: physicochemical; conditions: silica gel 60 RP-2 F254 silanized; water:methanol:acetonitrile 60:20:20, ammonium acetate pH 7.4
Description: as §1, §2, §3

[3] = entering the CNS / not entering the CNS; ref Drugbank [36]; cited from earlier work
[4] = cited from earlier work
[5] = HPLC on IAM (immobilized artificial membrane) column, retention factor; assay type: physicochemical; conditions: IAM.PC.DD.2 column; for k(IAM) retention factor: 10 mM phosphate buffer pH 7.4:acetonitrile 80:20; for logkIAM: logarithm of retention factor, phosphate buffer pH 7.4:acetonitrile 80:20
Description: Chromatographic data also came from an experiment with a HPLC IAM (immobilized artificial membrane) column (Regis Technologies Inc.: IAM.PC.DD.2, 10 µm; 4.6 mm × 10 mm). The column contains a standard membrane consisting of a phospholipid bilayer. Organic solvents (acetonitrile and methanol) and water (J.T. Baker HPLC) were used in HPLC. Sigma phosphate buffered saline tablets were used to prepare the phosphate buffer. The mobile phase was a mixture of 10 mM phosphate buffer at pH 7.4 and acetonitrile in the ratio of 80:20 (v/v) [35]. The mobile phase flow was set at 0.5 mL/min; detection was carried out with a UV–Vis detector. The obtained values of the retention factor (k IAM) were transformed into a logarithmic form and entered into the statistical analysis (descriptor: log k IAM).

[6] = plasma protein binding, given as fraction; ref Drugbank; cited from earlier work

| Structure (SMILES) | NP (Rf from NP TLC plate) [1] | RP (Rf from RP-2 TLC plate) [2] | CNS+/- [3] | Kp,uu,brain (unbound brain-to-plasma drug partition coefficient) [4] | k(IAM) retention factor [5] | logkIAM [5] | PB (protein binding) [6] |
| --- | --- | --- | --- | --- | --- | --- | --- |
| CN(C)CCC=C1c2ccccc2CCc2ccccc21 [amitriptyline] | 0.32 | 0.67 | 1 | 1.33 | – | – | – |
| NC(=O)N1c2ccccc2C=Cc2ccccc21 [carbamazepine] | 0.95 | 0.83 | 1 | 0.76 | 1.50 | 0.18 | – |
| CN(C)CCCN1c2ccccc2Sc2ccc(Cl)cc21 [chlorpromazine] | 0.43 | 0.49 | – | 3.41 | 58.85 | 1.77 | 0.9 |
| CN1CCN(C2=Nc3cc(Cl)ccc3Nc3ccccc32)CC1 [clozapine] | 0.45 | – | – | 3.83 | 50.94 | 1.71 | 0.99 |
| C[C@H]1c2cccc(O)c2C(=O)C2=C(O)[C@]3(O)C(=O)C(C(N)=O)=C(O)[C@@H](N(C)C)[C@@H]3[C@@H](O)[C@@H]21 [doxycycline] | 0.06 | 0.08 | 0 | – | 1.76 | 0.24 | 0.9 |
| CCOC(=O)[C@H](CCc1ccccc1)N[C@@H](C)C(=O)N1CCC[C@H]1C(=O)O [enalapril] | 0.33 | 0.6 | 0 | – | 0.05 | -1.29 | 0.55 |
| COC(=O)[C@@H]1CC2=CC(=O)CC[C@]2(C)[C@@]23O[C@@H]2C[C@@]2(C)[C@@H](CC[C@@]24CCC(=O)O4)[C@H]13 [eplerenone] | 0.94 | 0.84 | 1 | – | 1.54 | 0.19 | 0.5 |
| CNCCC(Oc1ccc(C(F)(F)F)cc1)c1ccccc1 (stereo not shown) [fluoxetine] | 0.68 | 0.54 | – | 5.23 | 66.64 | 1.82 | 0.945 |
| OCCN1CCN(CCC=C2c3ccccc3Sc3ccc(C(F)(F)F)cc32)CC1 [flupenthixol] | 0.51 | 0.66 | 1 | – | 51.21 | 1.71 | 0.95 |
| NCC1(CC(=O)O)CCCCC1 [gabapentin] | – | – | – | 0.44 | – | – | 0.03 |
| Cc1ccc(S(=O)(=O)NC(=O)NN2CC3CCCC3C2)cc1 (stereo not shown) [gliclazide] | 0.95 | 0.83 | 1 | – | 0.28 | -0.55 | 0.94 |
| O=C(CCCN1CCC(O)(c2ccc(Cl)cc2)CC1)c1ccc(F)cc1 [haloperidol] | 0.66 | 0.61 | – | 1.77 | 23.74 | 1.38 | 0.92 |
| CN1CCC(=C2c3ccccc3CC(=O)c3sccc32)CC1 [ketotifen] | 0.34 | 0.75 | 1 | – | 22.04 | 1.34 | 0.75 |
| Nc1nnc(-c2cccc(Cl)c2Cl)c(N)n1 [lamotrigine] | 0.89 | 0.87 | – | 4.86 | 0.71 | -0.15 | – |
| C[C@](N)(Cc1ccc(O)c(O)c1)C(=O)O [methyldopa] | 0.38 | 0.85 | 0 | – | 0.10 | -1.02 | 0.2 |
| Cc1ncc2n1-c1ccc(Cl)cc1C(c1ccccc1F)=NC2 [midazolam] | 0.82 | 0.66 | 1 | 1.08 | 5.69 | 0.76 | – |
| COc1ccnc(C[S+]([O-])c2nc3ccc(OC(F)F)cc3[nH]2)c1OC (stereo not shown) [pantoprazole] | 0.93 | 0.85 | 0 | – | 2.19 | 0.34 | 0.98 |
| Fc1ccc([C@@H]2CCNC[C@H]2COc2ccc3c(c2)OCO3)cc1 [paroxetine] | 0.55 | 0.6 | 1 | – | 115.77 | 2.06 | 0.94 |
| CCC[C@H](N[C@@H](C)C(=O)N1[C@H](C(=O)O)C[C@@H]2CCCC[C@@H]21)C(=O)OCC [perindopril] | 0.47 | 0.57 | 0 | – | 0.18 | -0.76 | 0.15 |
| CN1C(C(=O)Nc2ccccn2)=C(O)c2ccccc2S1(=O)=O [piroxicam] | 0.98 | 0.58 | 0 | – | 0.16 | -0.79 | 0.99 |
| CN(C)CCCN1c2ccccc2Sc2ccccc21 [promazine] | 0.39 | 0.51 | 1 | – | 0.10 | -1.02 | 0.94 |
| CC(CN1c2ccccc2Sc2ccccc21)N(C)C (stereo not shown) [promethazine] | 0.43 | 0.49 | 1 | – | 14.96 | 1.17 | 0.93 |
| CCOC(=O)[C@H](CCc1ccccc1)N[C@@H](C)C(=O)N1Cc2ccccc2C[C@H]1C(=O)O [quinapril] | 0.44 | 0.57 | 0 | – | 1.22 | 0.09 | 0.97 |
| CN(C)CCc1c[nH]c2ccc(Cn3cncn3)cc12 [rizatriptan] | 0.2 | – | 1 | 0.04 | 2.53 | 0.40 | – |
| CCCC(CCC)C(=O)O [valproic acid] | 0.69 | 0.04 | 1 | – | 0.08 | -1.09 | 0.85 |
| COc1ccc(C(CN(C)C)C2(O)CCCCC2)cc1 (stereo not shown) [venlafaxine] | – | – | – | 1.91 | 8.25 | 0.92 | 0.27 |
